Publication PMC11528067, “Structural Bases of Dihydroxy Acid Dehydratase Inhibition and Biodesign for Self-Resistance” (Biodesign Research, 2024)
Where “and” joins values, the source holds several entries; their conditions need not be identical. Identical values can stand only once.

How the values were obtained:
[1] = biological target: T1, AthDHAD-I177L (Arabidopsis thaliana, UniProt Q9LIR4, I211L); assay: In vitro activity and AA inhibition assay of AthDHAD mutant I177L; type: biochemical, A. thaliana
T1 construct: made in house; host or cells: E. coli BL21(DE3)
Experimental: (§1) In vitro activity assays were carried out in 25 μl of reaction mixture containing A10 buffer without NaCl. The Michaelis–Menten constants (kcat, KM) for each enzyme were calculated by fitting the following formula to the observed reaction rate. V=VmaxS/KM+S Vmax=kcatE0
(§2) The inhibition percentages of AA on AthDHADs were determined using in vitro biochemical assays and calculated with the following equation:
(§3) Inhibition percentage = 100 − 100 × (initial reaction rate with AA/initial reaction rate without AA)
(§4) The inhibition assays were conducted with either 10 mM (±)-sodium-α,β-dihydroxyisovalerate (DHI) or 10 mM (±)-sodium-α,β-dihydroxymethylvalerate hydrate (DHMV), along with 0.5 μM of purified AthDHAD enzyme or its mutants. The reaction was initiated by adding the corresponding enzymes, followed by a 20-min incubation at 28°C. To halt the reactions, an equal volume of acetonitrile was introduced. Subsequently, approximately 0.04 volumes of 100 mM phenylhydrazine were added to facilitate the derivatization of the product, either 2-keto-isovalerate or 2-keto-3-methylvalerate, at room temperature for 30 min. For HPLC analysis, 10 μl of the reaction mixture was utilized.

[2] = biological target: T2, AthDHAD-V496F (Arabidopsis thaliana, UniProt Q9LIR4, V530F); assay: In vitro activity and AA inhibition assay of AthDHAD mutant V496F; type: biochemical, A. thaliana
T2 construct: made in house; host or cells: E. coli BL21(DE3)
Experimental: as §1, §2, §3, §4

[3] = biological target: T3, AthDHAD-V496L (Arabidopsis thaliana, UniProt Q9LIR4, V530L); assay: In vitro activity and AA inhibition assay of AthDHAD mutant V496L; type: biochemical, A. thaliana; settings: DHI as substrate (10 mM), 0.5 μM enzyme
T3 construct: made in house; host or cells: E. coli BL21(DE3)
Experimental: as §1, §2, §3, §4

[4] = biological target: T4, AthDHAD-V178I (Arabidopsis thaliana, UniProt Q9LIR4, V212I); assay: In vitro activity and AA inhibition assay of AthDHAD mutant V178I; type: biochemical, A. thaliana; settings: DHI as substrate (10 mM), 0.5 μM enzyme
T4 construct: made in house; host or cells: E. coli BL21(DE3)
Experimental: as §1, §2, §3, §4

[5] = biological target: T5, AthDHAD (Arabidopsis thaliana, UniProt Q9LIR4); settings: cited from earlier work
T5 construct: made in house; host or cells: E. coli BL21(DE3)
T5 sequence (Q9LIR4 35-608): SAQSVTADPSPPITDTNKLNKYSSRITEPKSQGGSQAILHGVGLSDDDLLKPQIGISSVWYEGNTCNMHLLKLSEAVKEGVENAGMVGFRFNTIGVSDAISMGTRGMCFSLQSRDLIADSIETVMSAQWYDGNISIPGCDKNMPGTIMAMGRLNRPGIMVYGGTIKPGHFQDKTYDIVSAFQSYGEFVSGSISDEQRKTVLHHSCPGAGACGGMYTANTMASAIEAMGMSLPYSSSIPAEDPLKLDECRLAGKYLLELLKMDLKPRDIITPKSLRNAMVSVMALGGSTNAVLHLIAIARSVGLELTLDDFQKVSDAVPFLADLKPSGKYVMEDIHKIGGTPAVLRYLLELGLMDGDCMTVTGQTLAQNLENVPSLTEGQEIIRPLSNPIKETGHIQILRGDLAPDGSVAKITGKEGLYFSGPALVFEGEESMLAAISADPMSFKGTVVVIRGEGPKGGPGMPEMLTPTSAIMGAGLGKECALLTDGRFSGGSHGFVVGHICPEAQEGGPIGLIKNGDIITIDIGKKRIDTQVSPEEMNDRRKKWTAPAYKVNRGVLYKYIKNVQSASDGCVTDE

[6] = tested on: AstD; settings: cited from earlier work
[7] = tested on: A. thaliana transgenic lines with mutant AthDHAD (V178L and V496L); assay: Growth inhibition of AA on transgenic A. thaliana with mutant AthDHAD (V178L and V496L); type: in vivo; settings: 100 μM AA on Murashige and Skoog medium, day 7; V178L and V496L lines compared to line expressing AstD
From the text: The gene block containing DHAD variants, and the 2XFLAG-tag was synthesized and then cloned into modified pEG302 vector using Gateway LR Clonase II Enzyme Mix (Thermo Fisher Scientific). Ubiquitin-10 promoter was used to drive the expression of DHAD variants. The construct was electrotransformed into Agrobacterium tumefaciens strain Agl0 and then transformed into A. thaliana rdr6-15 in which the transgene silencing pathway is blocked. Positive transgenic plants were selected using the hygromycin B and were tested for survival in the presence of AA.
A. thaliana seeds were sterilized with 70% ethanol and sown on Murashige and Skoog medium supplemented with either ethanol control or 100 μM AA. Photos were taken, and fresh weights were measured at day 7.

[8] = biological target: T6, AthDHAD-V178F (Arabidopsis thaliana, UniProt Q9LIR4, V212F); assay: In vitro activity and AA inhibition assay of AthDHAD mutant V178F; type: biochemical, A. thaliana; settings: DHI as substrate (10 mM), 0.5 μM enzyme
T6 construct: made in house; host or cells: E. coli BL21(DE3)
Experimental: as §1, §2, §3, §4

[9] = biological target: T7, AthDHAD-V496I (Arabidopsis thaliana, UniProt Q9LIR4, V530I); assay: In vitro activity and AA inhibition assay of AthDHAD mutant V496I; type: biochemical, A. thaliana
T7 construct: made in house; host or cells: E. coli BL21(DE3)
Experimental: as §1, §2, §3, §4

[10] = biological target: T8, AthDHAD-V497L (Arabidopsis thaliana, UniProt Q9LIR4, V531L); assay: In vitro activity and AA inhibition assay of AthDHAD mutant V497L; type: biochemical, A. thaliana
T8 construct: made in house; host or cells: E. coli BL21(DE3)
Experimental: as §1, §2, §3, §4

[11] = tested on: Transgenic A. thaliana expressing AstD; set-up: method as in PMID 29995859; settings: cited from earlier work
[12] = tested on: AteDHAD; set-up: method as in PMID 29995859; settings: housekeeping DHAD from A. terreus (XP_001208445.1); cited from earlier work
[13] = tested on: A. thaliana; set-up: method as in PMID 29995859; settings: A. thaliana as a model plant organism; cited from earlier work
[14] = biological target: T9, AthDHAD-I177L-V496L (Arabidopsis thaliana, UniProt Q9LIR4, I211L/V530L); assay: In vitro activity and AA inhibition assay of AthDHAD double mutant I177L/V496L; type: biochemical, A. thaliana
T9 construct: made in house; host or cells: E. coli BL21(DE3)
Experimental: as §1, §2, §3, §4

[15] = biological target: T10, AthDHAD-V178L-V497L (Arabidopsis thaliana, UniProt Q9LIR4, V212L/V531L); assay: In vitro activity and AA inhibition assay of AthDHAD double mutant V178L/V497L; type: biochemical, A. thaliana
T10 construct: made in house; host or cells: E. coli BL21(DE3)
Experimental: as §1, §2, §3, §4

[16] = biological target: T11, AthDHAD-V178W (Arabidopsis thaliana, UniProt Q9LIR4, V212W); assay: In vitro activity and AA inhibition assay of AthDHAD mutant V178W; type: biochemical, A. thaliana; settings: DHI as substrate (10 mM), 0.5 μM enzyme
T11 construct: made in house; host or cells: E. coli BL21(DE3)
Experimental: as §1, §2, §3, §4

[17] = biological target: T12, AthDHAD-V178L (Arabidopsis thaliana, UniProt Q9LIR4, V212L); assay: In vitro activity and AA inhibition assay of AthDHAD mutant V178L; type: biochemical, A. thaliana; settings: DHI as substrate (10 mM), 0.5 μM enzyme
T12 construct: made in house; host or cells: E. coli BL21(DE3)
Experimental: as §1, §2, §3, §4

[18] = biological target: T13, AthDHAD-V497F (Arabidopsis thaliana, UniProt Q9LIR4, V531F); assay: In vitro activity and AA inhibition assay of AthDHAD mutant V497F; type: biochemical, A. thaliana; settings: DHI as substrate (10 mM), 0.5 μM enzyme
T13 construct: made in house; host or cells: E. coli BL21(DE3)
Experimental: as §1, §2, §3, §4

[19] = biological target: T14, AthDHAD-I177L-V497L (Arabidopsis thaliana, UniProt Q9LIR4, I211L/V531L); assay: In vitro activity and AA inhibition assay of AthDHAD double mutant I177L/V497L; type: biochemical, A. thaliana
T14 construct: made in house; host or cells: E. coli BL21(DE3)
Experimental: as §1, §2, §3, §4

[20] = biological target: T5, AthDHAD; assay: In vitro activity and AA inhibition assay of AthDHAD; type: biochemical, A. thaliana; settings: AthDHAD wild type
Experimental: as §1, §2, §3, §4

[21] = biological target: T15, AthDHAD-V497I (Arabidopsis thaliana, UniProt Q9LIR4, V531I); assay: In vitro activity and AA inhibition assay of AthDHAD mutant V497I; type: biochemical, A. thaliana; settings: DHI as substrate (10 mM), 0.5 μM enzyme
T15 construct: made in house; host or cells: E. coli BL21(DE3)
Experimental: as §1, §2, §3, §4

[22] = biological target: T16, AthDHAD-I177F (Arabidopsis thaliana, UniProt Q9LIR4, I211F); assay: In vitro activity and AA inhibition assay of AthDHAD mutant I177F; type: biochemical, A. thaliana
T16 construct: made in house; host or cells: E. coli BL21(DE3)
Experimental: as §1, §2, §3, §4

T3 sequence (Q9LIR4 35-608 V530L): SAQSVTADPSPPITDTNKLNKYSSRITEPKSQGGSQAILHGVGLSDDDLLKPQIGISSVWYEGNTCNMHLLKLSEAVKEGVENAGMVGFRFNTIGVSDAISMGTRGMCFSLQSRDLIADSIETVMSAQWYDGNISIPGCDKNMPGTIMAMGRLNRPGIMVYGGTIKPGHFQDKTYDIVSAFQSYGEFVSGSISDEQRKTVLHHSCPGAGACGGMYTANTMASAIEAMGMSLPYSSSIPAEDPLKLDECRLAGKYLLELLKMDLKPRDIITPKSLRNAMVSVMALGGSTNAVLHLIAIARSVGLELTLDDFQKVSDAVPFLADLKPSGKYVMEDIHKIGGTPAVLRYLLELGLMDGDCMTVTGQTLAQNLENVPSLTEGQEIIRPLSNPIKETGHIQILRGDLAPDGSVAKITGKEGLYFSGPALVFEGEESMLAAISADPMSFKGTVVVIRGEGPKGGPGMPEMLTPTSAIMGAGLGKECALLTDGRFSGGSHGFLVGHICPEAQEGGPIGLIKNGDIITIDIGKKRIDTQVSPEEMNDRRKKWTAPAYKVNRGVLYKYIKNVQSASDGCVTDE
T12 sequence (Q9LIR4 35-608 V212L): as the sequence (Q9LIR4 35-608 V530L) above, with V178L, L496V counted along it
T15 sequence (Q9LIR4 35-608 V531I): as the sequence (Q9LIR4 35-608 V530L) above, with L496V, V497I counted along it
T4 sequence (Q9LIR4 35-608 V212I): as the sequence (Q9LIR4 35-608 V530L) above, with V178I, L496V counted along it
T11 sequence (Q9LIR4 35-608 V212W): as the sequence (Q9LIR4 35-608 V530L) above, with V178W, L496V counted along it
T6 sequence (Q9LIR4 35-608 V212F): as the sequence (Q9LIR4 35-608 V530L) above, with V178F, L496V counted along it
T13 sequence (Q9LIR4 35-608 V531F): as the sequence (Q9LIR4 35-608 V530L) above, with L496V, V497F counted along it
T16 sequence (Q9LIR4 35-608 I211F): as the sequence (Q9LIR4 35-608 V530L) above, with I177F, L496V counted along it
T8 sequence (Q9LIR4 35-608 V531L): as the sequence (Q9LIR4 35-608 V530L) above, with L496V, V497L counted along it
T2 sequence (Q9LIR4 35-608 V530F): as the sequence (Q9LIR4 35-608 V530L) above, with L496F counted along it
T1 sequence (Q9LIR4 35-608 I211L): as the sequence (Q9LIR4 35-608 V530L) above, with I177L, L496V counted along it
T7 sequence (Q9LIR4 35-608 V530I): as the sequence (Q9LIR4 35-608 V530L) above, with L496I counted along it
T9 sequence (Q9LIR4 35-608 I211L/V530L): as the sequence (Q9LIR4 35-608 V530L) above, with I177L counted along it
T10 sequence (Q9LIR4 35-608 V212L/V531L): as the sequence (Q9LIR4 35-608 V530L) above, with V178L, L496V, V497L counted along it
T14 sequence (Q9LIR4 35-608 I211L/V531L): as the sequence (Q9LIR4 35-608 V530L) above, with I177L, L496V, V497L counted along it

Question: What does the source list for `CC(C)=C1CCC23COC(C2)C(O)(C(=O)O)CCC13` (centres unmarked) [AA, aspterric acid]?
Answer: IC50 [1]: 50 ± 1 nM; IC50 [2]: 2940 nM; IC50 [3]: 820 nM and 824 nM; IC50 [4]: 430 nM and 431 nM; Ki ([5]; binding of AA to AthDHAD as a competitive inhibitor): ~300 nM; mode of inhibition ([5]; housekeeping DHAD from A. thaliana (AT3G23940)): competitive inhibitor; AA resistance observed in AstD ([6]; reported): over 8 mM; sensitivity of AstD to AA ([6]; within the solubility limit (8 mM)): completely insensitive; growth of transgenic plants in the presence of AA [7]: not able to rescue the growth of the plants; IC50 [8]: 6000 nM and 5990 nM; IC50 [9]: 1140 ± 52 nM; IC50 [10]: 59 nM; resistance of transgenic plants to AA [11]: strong resistance; mode of inhibition [12]: competitive inhibitor; herbicidal effect in spray experiments [13]: effective as an herbicide; IC50 [14]: 309 ± 74 nM; IC50 [15]: 396 ± 11 nM; IC50 [16]: 2340 nM; IC50 [17]: 970 nM and 974 nM; IC50 [18]: 1250 nM; IC50 [19]: 28 nM; IC50 ([20]; DHI as substrate (10 mM), 0.5 μM enzyme): 250 nM and 249 nM; IC50 [21]: 73.3 nM and 73 nM; IC50 [22]: 37000 ± 8770 nM

Question: With `CC[C@@](C)(O)[C@@H](O)C(=O)O` (racemic) [DHMV, (±)-sodium-α,β-dihydroxymethylvalerate hydrate, reference compound] as the compound, how does the Km ([20]; substrate DHMV) read?
Answer: 4 ± 0.45 mM

Question: And the kcat ([20]; substrate DHMV)?
Answer: 6.50 ± 0.32 s⁻¹
